# Laboratory results: patent US4705805A, “Antithrombotic agent” (priority 1978, dated 1987)
# Like-named read-outs stand apart in the source and are kept apart here.
# Experiments:
# [1] = tested on: rabbit blood platelets (platelet rich plasma), collagen-induced aggregation; assay: inhibition of platelet aggregation in rabbit platelet rich plasma (in vitro), induced by collagen; assay type: cell-based; settings: Oryctolagus cuniculus, Platelet; for inhibition at 3 µg/mL: 3 μg/ml; for inhibition at 10 µg/mL: 10 μg/ml; for inhibition at 1 µg/mL: 1 μg/ml
# Description: (§1) In this example, the inhibition of platelet aggregation in rabbit platelet rich plasma (in vitro) is tested.
# (§2) In this test, 9 vol. of blood is sampled from the carotid artery of rabbits (2 to 2.5 Kg) and placed in a silicon-coated flask containing 1 vol. of 3.8% sodium citrate. The thus obtained blood is centrifuged at 1,000 rpm for 15 minutes to obtain platelet rich plasma (referred to as "PRP" hereinafter). The aggregation of blood platelets is observed using an aggregometer (made by Bryston Co.) and the degree of aggregation after the addition of aggregation promoting substances is measured by nephelometry, i.e., through increase in light transmission.
# (§3) The PRP (0.9 ml) is placed in a silicon-coated cuvett of the aggregometer. Then, 0.05 ml of physiological saline solution containing various concentrations of test reagents or control reagents is added and the mixture is allowed to stand for one minute. Compounds promoting aggregation are then added and the absorbancy of the solution is measured and the percent inhibition of aggregation is calculated according to the following equation: [formula] C: Transmittancy showing the maximum percent aggregation by physiological saline solution
# (§4) D: Transmittancy showing the maximum percent aggregation by sample
# (§5) Test for the inhibition of platelet aggregation induced by ADP, collagen and thrombin.
# solubility = assay type: physicochemical; settings: for Solubility in ether, benzene, chloroform: chloroform, and the like
# [2] = tested on: human platelet rich plasma, ADP-induced aggregation; assay: inhibition of platelet aggregation in human platelet rich plasma, induced by ADP; assay type: cell-based; settings: read-out: percentage inhibition, ADP; for inhibition at 10 µg/mL: 10 μg/ml
# Description: as §2, §3, §4
# (§6) In this example, the same procedures are repeated as in Example 10 except that human platelet rich plasma is used in place of rabbit platelet rich plasma.
# [3] = tested on: rabbit blood platelets (platelet rich plasma), ADP-induced aggregation; assay: inhibition of platelet aggregation in rabbit platelet rich plasma (in vitro), induced by ADP; assay type: cell-based; settings: Oryctolagus cuniculus, Platelet; for inhibition at 10 µg/mL / inhibition at 30 µg/mL / IC50 / inhibition at 1 µg/mL / inhibition at 3 µg/mL: rabbit PRP, ADP 10^-5 M; for inhibition at 10 µg/mL: 10 μg/ml; for inhibition at 30 µg/mL: 30 μg/ml; for inhibition at 1 µg/mL: 1 μg/ml; for inhibition at 3 µg/mL: 3 μg/ml
# Description: as §1, §2, §3, §4, §5
# [4] = tested on: human platelet rich plasma, collagen-induced aggregation; assay: inhibition of platelet aggregation in human platelet rich plasma, induced by collagen; assay type: cell-based; settings: read-out: percentage inhibition, collagen; for inhibition at 10 µg/mL: 10 μg/ml
# Description: as §2, §3, §4, §6
# [5] = tested on: mice (male dd-strain), death by sodium arachidonate; assay: prevention of death of mice by sodium arachidonate; assay type: in vivo; settings: sodium arachidonate 50 mg/Kg i.v. two hours thereafter
# Description: When a large amount of arachidonic acid is intravenously administrated to a mouse, blood platelet aggregates are formed and caught by the microvasculature system of the lung. As a result, the mouse expires due to dyspnea.
# To examine the effect of a medicine in vivo, the medicine is orally administered to test animals and thereafter arachidonic acid is administered.
# In this example, the test was carried out according to the method by Uzunova A. D. et al. [Prostaglandins 13, p. 995 (1977)] Specifically, a CMC suspension consisting of 0.3% CMC solution and a medicine (test compound and reference medicine) was orally administered to mice (male dd-strain, 22-24 g). Two hours thereafter, 50 mg/Kg of sodium arachidonate was intravenously administered to the mice.
# [6] = tested on: rabbit blood platelets (platelet rich plasma), thrombin-induced aggregation; assay: inhibition of platelet aggregation in rabbit platelet rich plasma (in vitro), induced by thrombin; assay type: cell-based; settings: Oryctolagus cuniculus, read-out: percentage of inhibition, thrombin; for inhibition at 3 µg/mL: 3 μg/ml; for inhibition at 10 µg/mL: 10 μg/ml
# Description: as §1
# as §2, with “The” for “In this test, 9 vol. of blood is sampled from the carotid artery of rabbits (2 to 2.5 Kg) and placed in a silicon-coated flask containing 1 vol. of 3.8% sodium citrate. The”
# as §3, §4, §5
# [7] = tested on: mice, death by ADP injection; assay: prevention of death of mice by ADP addition (in vivo), oral administration; settings: for Mortality / Score (mortality): oral, 100 mg/Kg, ADP i.v. after one hour
# Description: (§7) In this example, prevention of death of mice by ADP addition (in vivo) is tested. It is shown that intravenous administration of a great amount of ADP to mice causes aggregated blood platelets to be captured in the pulmonary capillaries so that the mice die of respiratory distress.
# The test is carried out according to Roba's method. [Eur. J. Pharmacol. 37, 265-274 (1976)]. Specifically, CMC solution (0.3%) and CMC suspension containing the test compound and control compounds are orally administered to mice in a ratio of 0.1 ml/10 g (body weight). After one hour, an aqueous solution of ADP (60 mg/ml) is injected into the tail vein in a volume of 0.1 ml/10 g (body weight) every 10 seconds and the mortality is calculated.
# [8] = tested on: mice, death by ADP injection; assay: prevention of death of mice by ADP addition (in vivo), intravenous administration; settings: 10 mg/Kg, ADP-Na ten minutes thereafter
# Description: as §7
# In order to check the effect by intravenous administration, physiological saline solution and physiological saline solution containing the test reagents (0.5 mg/ml) is injected into the tail vein in a volume of 0.2 ml/10 g (body weight). Ten minutes thereafter (10 mg/kg) ADP-Na is injected into the tail vein as in the oral test, and the mortality is calculated.
# [9] = acute toxicity, Behrens-Karber's method; assay type: in vivo; settings: in vivo; mouse, oral
# Description: (§8) In this example, the acute toxicity of compounds of the invention is determined by Behrens-Karber's method using, 5 male dd-strain for each group weighing 20±1 g. A 0.3% CMC suspension of the test compound (concentration of the test compound: 100 mg/ml) is then orally administered to each mouse.
# mouse (male dd-strain) = assay: acute toxicity, Behrens-Karber's method; assay type: in vivo; settings: oral
# Description: as §8
# [10] = rabbit PRP, read-out: percentage of inhibition, collagen
# [11] = rabbit PRP, 30 μg/ml, read-out: percentage of inhibition, collagen
# [12] = read-out: percentage of inhibition, ADP
# [13] = read-out: percentage of inhibition, collagen
Structure (SMILES),"inhibition at 3 µg/mL [1, 10] [%]","inhibition at 10 µg/mL [1, 10] [%]","inhibition at 30 µg/mL [1, 11] [%]","Solubility in ether, benzene, chloroform (solubility)",inhibition at 10 µg/mL ([2]; human PRP) [%],"inhibition at 30 µg/mL ([2]; human PRP, 30 μg/ml) [%]","inhibition at 100 µg/mL ([2]; human PRP, 100 μg/ml) [%]","inhibition at 10 µg/mL [3, 12] [%]","inhibition at 30 µg/mL [3, 12] [%]",inhibition at 10 µg/mL ([4]; human PRP) [%],"inhibition at 30 µg/mL ([4]; human PRP, 30 μg/ml) [%]","inhibition at 100 µg/mL ([4]; human PRP, 100 μg/ml) [%]",Mortality ([5]; oral 25 mg/Kg) [%],Score (mortality) ([5]; oral 25 mg/Kg),Mortality [7] [%],Score (mortality) [7],Mortality [8] [%],LD50 [9] [mg/kg],IC50 [3] [µg/mL],"inhibition at 3 µg/mL [3, 12] [%]",other results
"O=C(NCO)c1ccccc1SSc1ccccc1C(=O)NCO [Compound XV, 2,2'-dithiobis(N-hydroxymethylbenzamide)]",22,56,100,Insoluble,5,45,90,0,46,29,68,100,,,,,,,,,"Solubility in DMSO, DMF (solubility; DMSO, DMF, etc.): Soluble; Solubility in ethanol, water (solubility; ethanol, water, and the like): poorly soluble"
"CC(=O)Oc1ccccc1C(=O)O [Aspirin, reference compound]",,,,,,,,,,,,,10,1/10,80,8/10,70,,,,"Mortality ([5]; oral 12.5 mg/Kg): 50%; Score (mortality) ([5]; oral 12.5 mg/Kg): 5/10; inhibition at 30 µg/mL [6]: 21%; inhibition at 100 µg/mL [6]: 65%; inhibition at 30 µg/mL [1, 13]: 20%; inhibition at 100 µg/mL [1, 13]: 34%; inhibition at 300 µg/mL [1, 13]: 48%; inhibition at 30 µg/mL ([2]; Homo sapiens): 7%; inhibition at 100 µg/mL ([2]; Homo sapiens): 20%; inhibition at 300 µg/mL [3, 12]: 0%; effect in reducing mortality (ADP) ([7]; in words, oral or intravenous administration, Table 3): ineffective; Score (mortality) [8]: 7/10; inhibition at 30 µg/mL ([4]; Homo sapiens): 48%; inhibition at 100 µg/mL ([4]; Homo sapiens): 86%"
"O=C(NCCO)c1ccccc1SSc1ccccc1C(=O)NCCO [Compound III, 2,2'-dithiobis(N-2-hydroxyethylbenzamide)]",88.5,100,,,15,43,98,69.1,100,20,66,100,,,20,2/10,,≥ 2000,4.8,33.4,"mortality rate (mouse (male dd-strain); 1 g/Kg): 0/5; mortality rate (mouse (male dd-strain); 2 g/Kg): 1/5; mortality rate (mouse (male dd-strain); 3 g/Kg): 4/5; mortality rate (mouse (male dd-strain); 4 g/Kg): 4/5; Mortality ([5]; oral 50 mg/Kg): 70%; Score (mortality) ([5]; oral 50 mg/Kg): 7/10; Mortality ([5]; oral 100 mg/Kg): 40%; Score (mortality) ([5]; oral 100 mg/Kg): 4/20; IC50 ([1]; rabbit PRP): 1.1 µg/mL; inhibition at 0.3 µg/mL ([1]; rabbit PRP, 0.3 μg/ml, read-out: percentage of inhibition, collagen): 11%; inhibition at 1 µg/mL [1, 10]: 39.2%; inhibition at 1 µg/mL [3, 12]: 21.3%"
"O=C(c1ccccc1SSc1ccccc1C(=O)N1CCN(Cc2ccccc2)CC1)N1CCN(Cc2ccccc2)CC1 [Compound IV, 2,2'-dithiobis(N'-benzylbenzpiperazide)]",7.6,46.5,100,Insoluble,,0,58,44.7,83.3,,12,75,,,30,3/10,50,≥ 4000,9.8,28,"inhibition at 3 µg/mL ([6]; rabbit PRP): 31%; inhibition at 10 µg/mL ([6]; rabbit PRP): 58%; inhibition at 30 µg/mL ([6]; rabbit PRP, 30 μg/ml): 84%; IC50 ([1]; rabbit PRP): 9.8 µg/mL; Solubility in methanol, ethanol (solubility; methanol, ethanol, and the like): slightly soluble; Solubility in water (solubility; water, etc.): Readily soluble; Score (mortality) [8]: 5/10"
"CC(O)CNC(=O)c1ccccc1SSc1ccccc1C(=O)NCC(C)O (stereo not drawn) [Compound V, 2,2'-dithiobis(N-2-hydroxypropylbenzamide)]",83.5,100,,,61,81,,54,90,39,100,,40,8/20,,,,≥ 3000,7.4,25.5,"mortality rate (mouse (male dd-strain); 2 g/Kg): 0/5; mortality rate (mouse (male dd-strain); 3 g/Kg): 2/5; mortality rate (mouse (male dd-strain); 4 g/Kg): 4/5; Mortality ([5]; oral 50 mg/Kg): 20%; Score (mortality) ([5]; oral 50 mg/Kg): 4/20; Mortality ([5]; oral 100 mg/Kg): 20%; Score (mortality) ([5]; oral 100 mg/Kg): 4/20; inhibition at 1 µg/mL ([6]; rabbit PRP, 1 μg/ml): 10%; inhibition at 3 µg/mL ([6]; rabbit PRP): 57%; inhibition at 10 µg/mL ([6]; rabbit PRP): 89.6%; inhibition at 30 µg/mL ([6]; rabbit PRP, 30 μg/ml): 95%; inhibition at 1 µg/mL [1, 10]: 25.7%; inhibition at 3 µg/mL ([2]; human PRP, 3 μg/ml): 47%; inhibition at 1 µg/mL [3, 12]: 12.5%; inhibition at 3 µg/mL ([4]; human PRP, 3 μg/ml): 13%"
